Here are results for 18 compounds from US9006139B2, “Active compound combinations” (Bayer Intellectual Property GmbH, priority 2009, dated 2015).

What all share (type): in vivo
One assay relates to Botrytis cinerea. As to the kind of experiment: Botrytis test (beans)/protective. To be noted: Table F; for Efficacy in % found / pest or weed control at 25 ppm: test 1. The procedure:
(§1) Solvent: 24.5 parts by weight of acetone
(§2) • 24.5 parts by weight of dimethylacetamide Emulsifier: 1 part by weight of alkylaryl polyglycol ether
To produce a suitable preparation of active compound, 1 part by weight of active compound is mixed with the stated amounts of solvent and emulsifier, and the concentrate is diluted with water to the desired concentration. To test for protective activity, young plants are sprayed with the preparation of active compound. After the spray coating has dried on, 2 small pieces of agar covered with growth of Botrytis cinerea are placed on each leaf. The inoculated plants are placed in a darkened chamber at 20° C. and a relative atmospheric humidity of 100%. 2 days after the inoculation, the size of the lesions on the leaves is evaluated. 0% means an efficacy which corresponds to that of the control, while an efficacy of 100% means that no disease is observed.

Another assay has as its system Venturia inaequalis. The experiment in a line: Venturia test (apples)/protective. The settings on record: Table D. As for the experimental part:
as §1, §2
(§3) To produce a suitable preparation of active compound, 1 part by weight of active compound is mixed with the stated amounts of solvent and emulsifier, and the concentrate is diluted with water to the desired concentration. To test for protective activity, young plants are sprayed with the preparation of active compound at the stated rate of application. After the spray coating has dried on, the plants are inoculated with an aqueous conidia suspension of the causal agent of apple scab (Venturia inaequalis) and then remain for 1 day in an incubation cabinet at approximately 20° C. and a relative atmospheric humidity of 100%. The plants are then placed in a greenhouse at approximately 21° C. and a relative atmospheric humidity of approximately 90%. The test is evaluated 10 days after the inoculation. 0% means an efficacy which corresponds to that of the control, while an efficacy of 100% means that no disease is observed.

A further assay concerns Septoria tritici. As to the kind of experiment: Septoria tritici-test (wheat)/preventive. The settings on record: Table H; 62.5 ppm a.i. The procedure:
(§4) Solvent: 49 parts by weight of n,n-dimethylacetamid
(§5) Emulsifier: 1 part by weight of alkylaryl polyglycol ether
(§6) To produce a suitable preparation of active compound, 1 part by weight of active compound or active compound combination is mixed with the stated amounts of solvent and emulsifier, and the concentrate is diluted with water to the desired concentration. To test for preventive activity, young plants are sprayed with the preparation of active compound or active compound combination at the stated rate of application. After the spray coating has been dried, the plants are sprayed with a spore suspension of Septoria tritici. The plants remain for 48 hours in an incubation cabinet at approximately 20° C. and a relative atmospheric humidity of approximately 100% and afterwards for 60 hours at approximately 15° C. in a translucent incubation cabinet at a relative atmospheric humidity of approximately 100%. The plants are placed in the greenhouse at a temperature of approximately 15° C. and a relative atmospheric humidity of approximately 80%. The test is evaluated 21 days after the inoculation. 0% means an efficacy which corresponds to that of the untreated control, while an efficacy of 100% means that no disease is observed.

Another assay relates to Alternaria solani. The experiment in a line: Alternaria test (tomatoes)/protective. To be noted: Alternaria solani, 72 h, Table E, read-out: Efficacy in % found; for pest or weed control at 2 ppm: 2 ppm a.i.; for pest or weed control at 0.5 ppm: 0.5 ppm a.i. As for the experimental part: as §1, §2
as §3, with “aqueous spore” for “aqueous conidia”, “of Alternaria solani. The plants are” for “of the causal agent of apple scab (Venturia inaequalis) and”, “then placed” for “then remain for 1 day”, “The” for “The plants are then placed in a greenhouse at approximately 21° C. and a relative atmospheric humidity of approximately 90%. The”, “evaluated 3” for “evaluated 10”, “the control” for “the control,”

Another assay has as its system Pyrenophora teres. As to the kind of experiment: Pyrenophora teres-test (barley)/preventive. The procedure: as §4, §5
as §6, with “Pyrenophora teres.” for “Septoria tritici.”, “approximately” for “approximately 100% and afterwards for 60 hours at approximately 15° C. in a translucent incubation cabinet at a relative atmospheric humidity of approximately”, “20°” for “15°”, “8” for “21”

Another assay deals with Sphaerotheca fuliginea. The experiment in a line: Sphaerotheca test (cucumbers)/protective. To be noted: Podosphaera fuliginea, 168 h, Table C, read-out: Efficacy in % found. As for the experimental part:
as §1, §2
as §3, with “for protect” for “for protective”, “aqueous spore” for “aqueous conidia”, “of Sphaerotheca fuliginea.” for “of the causal agent of apple scab (Venturia inaequalis) and then remain for 1 day in an incubation cabinet at approximately 20° C. and a relative atmospheric humidity of 100%.”, “approximately 23°” for “approximately 21°”, “approximately 70%.” for “approximately 90%.”, “evaluated 7” for “evaluated 10”

Another assay relates to Phytophthora infestans. As to the kind of experiment: whole plant or invertebrate. The settings on record: Phytophthora infestans, 72 h; for pest or weed control at 1 ppm: read-out: Efficacy in % found, Table A, test 1, 1 ppm a.i.
The test system of another assay is Leptosphaeria nodorum. The experiment in a line: Leptosphaeria nodorum test (wheat)/preventive. The settings on record: Parastagonospora nodorum, 192 h, Table K, read-out: Efficacy in % found; for pest or weed control at 500 ppm: 500 ppm a.i.; for pest or weed control at 125 ppm: 125 ppm a.i.; for pest or weed control at 62.5 ppm: 62.5 ppm a.i. As for the experimental part: as §4, §5
as §6, with “Leptosphaeria nodorum.” for “Septoria tritici.”, “approximately” for “approximately 100% and afterwards for 60 hours at approximately 15° C. in a translucent incubation cabinet at a relative atmospheric humidity of approximately”, “22°” for “15°”, “8” for “21”

The mark [1] stands for this setting: Botrytis cinerea, 48 h, 25 ppm a.i., read-out: Efficacy in % found.

On to `Cc1nn(C)c(F)c1C(=O)Nc1ccccc1C(C)CC(C)C` (stereo not shown) [(2.19), penflufen], for which the “Efficacy in % found” value turned out to be 65% in the assay on Botrytis cinerea (50 ppm a.i.); 0% in the assay on Venturia inaequalis (test 1, 1 ppm a.i.); 50% in the assay with Septoria tritici.
On to `CO/N=C(/C(=O)OC)c1ccccc1COc1ccccc1C` [(3.9), kresoxim-methyl], for which the pest or weed control at 2.5 ppm with Botrytis cinerea (Botrytis cinerea, 48 h, test 3, 2.5 ppm a.i., read-out: Efficacy in % found) is 75%; in the assay on Alternaria solani (test 2, 2.5 ppm a.i.), 50%. Moreover, the “Efficacy in % found” value in the assay on Pyrenophora teres (Table I2, 62.5 ppm a.i.) is reported as 67%. For the same compound, the pest or weed control at 5 ppm with Sphaerotheca fuliginea (test 4, 5 ppm a.i.) amounted to 52%.
With `C[C@@]1(c2ccc(Oc3ccccc3)cc2)OC(=O)N(Nc2ccccc2)C1=O` (racemic) [(3.6), famoxadone], in the assay with Phytophthora infestans (read-out: Efficacy in % found, Table A, test 7, 2.5 ppm a.i.), the pest or weed control at 2.5 ppm stood at 31%. Moreover, in the assay on Leptosphaeria nodorum, the pest or weed control at 500 ppm is 67%.
On to `Cn1cc(C(=O)Nc2ccccc2C2CC2C2CC2)c(C(F)F)n1` (stereo not shown) [(2.21), sedaxane], for which the “Efficacy in % found” value with Botrytis cinerea (25 ppm a.i.) is 30%; with Venturia inaequalis (test 1, 1 ppm a.i.), 24%; with Pyrenophora teres (Table I1, 125 ppm a.i.) it was 50%.
`CC(C)(C)C(O)(CCc1ccc(Cl)cc1)Cn1cncn1` (stereo not shown) [(1.47), tebuconazole]: the pest or weed control at 25 ppm with Botrytis cinerea (setting [1]) is 4%. In addition, the pest or weed control at 2 ppm in the assay on Alternaria solani (test 1) worked out at 35%; in the assay with Sphaerotheca fuliginea (test 1, 2 ppm a.i.), 50%. The pest or weed control at 125 ppm in the assay on Leptosphaeria nodorum stood at 88%.
As for `Cn1cc(C(=O)Nc2ccccc2-c2ccccc2C(F)(F)F)c(C(F)(F)F)n1` [(2.26), 1-methyl-3-(trifluoromethyl)-N-[2′-(trifluoromethyl)biphenyl-2-yl]-1H-pyrazole-4-carboxamide], the pest or weed control at 25 ppm in the assay with Botrytis cinerea (setting [1]) was determined as 89%. In the assay on Venturia inaequalis (test 1, 1 ppm a.i.), the “Efficacy in % found” value worked out at 54%.
For the compound `OC(Cc1ccccc1Cl)(Cn1nc[nH]c1=S)C1(Cl)CC1` (stereo not shown) [(1.41), prothioconazole], in the assay with Botrytis cinerea (setting [1]), the pest or weed control at 25 ppm was 49%. Moreover, in the assay with Alternaria solani (test 1), the pest or weed control at 2 ppm worked out at 30%. Also, the pest or weed control at 125 ppm with Leptosphaeria nodorum is 88%. Also, the pest or weed control at 0.5 ppm with Sphaerotheca fuliginea (test 1, 0.5 ppm a.i.) amounted to 37%.
As to `Cc1cc(C2CC2)nc(Nc2ccccc2)n1` [(7.3), cyprodinyl], the pest or weed control at 10 ppm with Botrytis cinerea (Botrytis cinerea, 48 h, test 2, 10 ppm a.i., read-out: Efficacy in % found) is 0%. The “Efficacy in % found” value in the assay on Pyrenophora teres (Table I1, 125 ppm a.i.) came out at 67%.
Consider `O=[N+]([O-])c1cc(C(F)(F)F)c(Cl)c([N+](=O)[O-])c1Nc1ncc(C(F)(F)F)cc1Cl` [(14.2), fluazinam], for which, in the assay on Leptosphaeria nodorum, the pest or weed control at 500 ppm is 89%.
For the compound `O=C(NCCc1ncc(C(F)(F)F)cc1Cl)c1ccccc1C(F)(F)F` [(2.6), fluopyram], the “Efficacy in % found” value in the assay on Venturia inaequalis (test 1, 1 ppm a.i.) was 0%; in the assay on Septoria tritici, 90%.
For the compound `CC1(C(=O)Nc2ccc(O)c(Cl)c2Cl)CCCCC1` [(1.16), fenhexamid], the pest or weed control at 12.5 ppm in the assay with Alternaria solani (test 1, 12.5 ppm a.i.) was determined as 0%. In addition, the “Efficacy in % found” value with Venturia inaequalis (test 1, 12.5 ppm a.i.) is 0%.
As to `O=C(Nc1ccccc1-c1ccc(Cl)cc1)c1cccnc1Cl` [(2.3), boscalid], in the assay with Botrytis cinerea (setting [1]), the pest or weed control at 25 ppm was 50%. Moreover, the “Efficacy in % found” value was 0% in the assay on Venturia inaequalis (test 1, 5 ppm a.i.) and 50% in the assay with Pyrenophora teres (Table I1, 62.5 ppm a.i.).
Turning to `CC(C)C1C2CCC1c1c(NC(=O)c3cn(C)nc3C(F)F)cccc12` (stereo not shown) [(2.10), isopyrazam], the “Efficacy in % found” value is listed as 28% in the assay with Venturia inaequalis (test 1, 1 ppm a.i.) and 80% with Septoria tritici.
For the compound `CON=C(C(=O)OC)c1ccccc1CON=C(C)c1cccc(C(F)(F)F)c1` [(3.17), trifloxystrobin], in the assay on Botrytis cinerea (setting [1]), the pest or weed control at 25 ppm stood at 40%. For the same compound, the pest or weed control at 0.5 ppm with Alternaria solani (test 1) is 30%. The “Efficacy in % found” value in the assay with Venturia inaequalis (test 1, 0.5 ppm a.i.) amounted to 8%.
Consider `CN(C)C(=S)SSC(=S)N(C)C` [(5.25), thiram], for which the pest or weed control at 500 ppm in the assay with Leptosphaeria nodorum worked out at 33%.
Consider `Cn1cc(C(=O)Nc2ccc(F)cc2-c2ccc(Cl)c(Cl)c2)c(C(F)F)n1` [(2.2), bixafen], for which the “Efficacy in % found” value with Venturia inaequalis (test 2, 0.5 ppm a.i.) was 0%; in the assay on Septoria tritici, 50%.
Consider `COC(=O)N(OC)c1ccccc1COc1ccn(-c2ccc(Cl)cc2)n1` [(3.13), pyraclostrobin], for which the pest or weed control at 1 ppm in the assay with Phytophthora infestans was determined as 58%. In addition, the pest or weed control at 25 ppm in the assay with Botrytis cinerea (setting [1]) came to 63%. Moreover, in the assay on Alternaria solani (test 1), the pest or weed control at 0.5 ppm came out at 50%. In addition, the “Efficacy in % found” value with Venturia inaequalis (test 1, 0.5 ppm a.i.) is recorded as 38%. For the same compound, in the assay on Leptosphaeria nodorum, the pest or weed control at 62.5 ppm turned out to be 88%.
`CO/N=C(/C1=NOCCO1)c1ccccc1Oc1ncnc(Oc2ccccc2Cl)c1F` [(3.8), fluoxastrobin]: the pest or weed control at 1 ppm in the assay on Phytophthora infestans worked out at 30%. For the same compound, the pest or weed control at 25 ppm in the assay with Botrytis cinerea (setting [1]) was found to be 8%. Also, the pest or weed control at 0.5 ppm in the assay on Alternaria solani (test 1) was 40%. Besides, the pest or weed control at 62.5 ppm in the assay on Leptosphaeria nodorum was 63%.
